In patent US11192877B2, “3-(5-hydroxy-1-oxoisoindolin-2-yl)piperidine-2,6-dione derivatives and uses thereof” (Novartis AG, priority 2018, dated 2021):
Structures can show the parent of a compound that is named as a salt. Where two headings read alike, the source gives them in different places.

Biological target: IKZF2 (Helios) (Homo sapiens, UniProt Q96SW2+Q9UKS7)
Experiment: Prolabel quantification of IKZF2 protein levels in 293GT cells
Type: cell-based
Conditions: 24 h, read-out: IKZF2 % protein reduction at 10 μM, 24 h
[1] = Pro-label assay, 293GT cells, 10 μM

IKZF2 (Helios), sequence (Q9UKS7 whole entry): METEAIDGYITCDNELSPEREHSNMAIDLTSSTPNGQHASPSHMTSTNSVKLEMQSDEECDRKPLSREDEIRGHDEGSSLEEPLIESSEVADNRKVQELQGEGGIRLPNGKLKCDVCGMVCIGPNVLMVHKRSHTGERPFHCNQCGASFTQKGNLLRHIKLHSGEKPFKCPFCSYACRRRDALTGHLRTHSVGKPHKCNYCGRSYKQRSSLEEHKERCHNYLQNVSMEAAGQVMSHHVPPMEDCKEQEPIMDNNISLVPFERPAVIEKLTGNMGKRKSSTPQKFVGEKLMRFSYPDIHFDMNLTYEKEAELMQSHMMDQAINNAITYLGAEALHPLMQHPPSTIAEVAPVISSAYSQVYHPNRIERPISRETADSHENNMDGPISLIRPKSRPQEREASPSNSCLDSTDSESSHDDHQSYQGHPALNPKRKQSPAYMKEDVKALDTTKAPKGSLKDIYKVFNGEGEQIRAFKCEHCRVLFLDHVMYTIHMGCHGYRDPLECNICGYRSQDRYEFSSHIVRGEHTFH
IKZF2 (Helios), sequence (Q96SW2 whole entry): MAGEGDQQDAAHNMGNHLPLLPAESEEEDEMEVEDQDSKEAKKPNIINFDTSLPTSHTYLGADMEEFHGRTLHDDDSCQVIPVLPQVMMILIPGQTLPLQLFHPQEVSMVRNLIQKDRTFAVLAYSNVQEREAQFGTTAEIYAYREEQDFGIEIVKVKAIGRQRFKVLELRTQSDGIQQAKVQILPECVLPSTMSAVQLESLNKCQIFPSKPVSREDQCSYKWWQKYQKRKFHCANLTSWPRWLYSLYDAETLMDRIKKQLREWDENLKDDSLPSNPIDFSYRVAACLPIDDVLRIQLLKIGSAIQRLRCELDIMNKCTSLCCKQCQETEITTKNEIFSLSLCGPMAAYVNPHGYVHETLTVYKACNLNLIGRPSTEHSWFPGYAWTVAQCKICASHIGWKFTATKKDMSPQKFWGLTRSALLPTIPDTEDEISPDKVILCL
IKZF2 (Helios), sequence (Q16531 whole entry partner): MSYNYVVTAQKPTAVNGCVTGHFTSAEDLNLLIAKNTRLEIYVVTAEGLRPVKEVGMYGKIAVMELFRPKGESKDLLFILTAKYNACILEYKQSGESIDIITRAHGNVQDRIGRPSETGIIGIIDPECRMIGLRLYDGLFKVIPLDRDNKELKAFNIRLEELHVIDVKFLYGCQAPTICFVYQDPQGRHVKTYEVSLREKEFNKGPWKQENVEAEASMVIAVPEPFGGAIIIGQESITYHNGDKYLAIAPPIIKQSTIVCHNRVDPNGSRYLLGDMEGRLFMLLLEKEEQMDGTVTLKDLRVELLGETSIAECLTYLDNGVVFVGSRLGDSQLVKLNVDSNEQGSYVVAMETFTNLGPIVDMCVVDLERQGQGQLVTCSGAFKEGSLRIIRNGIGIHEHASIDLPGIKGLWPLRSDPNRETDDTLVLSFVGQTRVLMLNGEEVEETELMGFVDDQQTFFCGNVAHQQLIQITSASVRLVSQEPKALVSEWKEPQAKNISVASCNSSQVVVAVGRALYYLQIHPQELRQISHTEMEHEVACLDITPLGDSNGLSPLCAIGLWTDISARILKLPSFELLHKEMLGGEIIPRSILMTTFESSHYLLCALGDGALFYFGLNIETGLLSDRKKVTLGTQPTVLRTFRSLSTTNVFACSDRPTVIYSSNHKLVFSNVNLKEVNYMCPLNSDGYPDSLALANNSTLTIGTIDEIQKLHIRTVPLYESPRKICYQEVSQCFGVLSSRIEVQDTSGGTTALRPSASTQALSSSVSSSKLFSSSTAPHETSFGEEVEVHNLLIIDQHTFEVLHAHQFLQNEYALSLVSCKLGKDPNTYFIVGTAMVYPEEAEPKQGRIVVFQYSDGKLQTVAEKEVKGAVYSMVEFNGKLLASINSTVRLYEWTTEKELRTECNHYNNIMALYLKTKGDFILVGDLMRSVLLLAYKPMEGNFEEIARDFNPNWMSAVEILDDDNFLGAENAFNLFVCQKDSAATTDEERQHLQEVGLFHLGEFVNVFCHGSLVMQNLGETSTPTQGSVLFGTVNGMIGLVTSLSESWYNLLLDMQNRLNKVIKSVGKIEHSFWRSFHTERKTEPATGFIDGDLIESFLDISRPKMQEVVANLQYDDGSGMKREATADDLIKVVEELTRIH

Structure (SMILES) | IKZF2 % protein reduction at 10 µM [1] | IKZF2 % protein reduction at 10 µM
O=C1CCC(N2Cc3cc(O[C@H]4CCC[C@@H]4NCc4ccccc4)ccc3C2=O)C(=O)N1 (stereo partly drawn) [I-20, 3-(5-(((1S,2S)-2-(benzylamino)cyclopentyl)oxy)-1-oxoisoindolin-2-yl)piperidine-2,6-dione] | 75% | –
O=C1CCC(N2Cc3cc(O[C@H]4CCOC[C@@H]4NCc4ccccc4)ccc3C2=O)C(=O)N1 (stereo partly drawn) [I-21, 3-(5-(((3S,4S)-3-(benzylamino)tetrahydro-2H-pyran-4-yl)oxy)-1-oxoisoindolin-2-yl)piperidine-2,6-dione] | 30% | –
O=C1CCC(N2Cc3cc(O[C@H]4CCCC[C@@H]4NCc4ccccc4)ccc3C2=O)C(=O)N1 (stereo partly drawn) [I-22, 3-(5-(((1S,2S)-2-(benzylamino)cyclohexyl)oxy)-1-oxoisoindolin-2-yl)piperidine-2,6-dione] | 80% | –
C[C@@H](N[C@H]1CCCC[C@@H]1Oc1ccc2c(c1)CN(C1CCC(=O)NC1=O)C2=O)c1ccccc1 (stereo partly drawn) [I-23, 3-(1-oxo-5-(((1S,2S)-2-(((R)-1-phenylethyl)amino)cyclohexyl)oxy)isoindolin-2-yl)piperidine-2,6-dione] | 80% | –
CCN(C(C)C)[C@H]1CCC[C@@H]1Oc1ccc2c(c1)CN(C1CCC(=O)NC1=O)C2=O (stereo partly drawn) [I-25, 3-(5-(((1S,2S)-2-(ethyl(isopropyl)amino)cyclopentyl)oxy)-1-oxoisoindolin-2-yl)piperidine-2,6-dione] | 80% | –
CO[C@H]1CCC[C@@H]1Oc1ccc2c(c1)CN(C1CCC(=O)NC1=O)C2=O (stereo partly drawn) [I-26, 3-(5-(((1S,2S)-2-methoxycyclopentyl)oxy)-1-oxoisoindolin-2-yl)piperidine-2,6-dione] | 0% | –
O=C1CCC(N2Cc3cc(O[C@H]4CCCC[C@@H]4O)ccc3C2=O)C(=O)N1 (stereo partly drawn) [I-27, 3-(5-(((1S,2S)-2-hydroxycyclohexyl)oxy)-1-oxoisoindolin-2-yl)piperidine-2,6-dione] | 50% | –
N[C@@H]1CCC[C@@H]1Oc1ccc2c(c1)CN(C1CCC(=O)NC1=O)C2=O (stereo partly drawn) [I-28, 3-(5-(((1S,2R)-2-aminocyclopentyl)oxy)-1-oxoisoindolin-2-yl)piperidine-2,6-dione hydrochloride] | – | 0%
N[C@@H]1CCCC[C@@H]1Oc1ccc2c(c1)CN(C1CCC(=O)NC1=O)C2=O (stereo partly drawn) [I-30, 3-(5-(((1S,2R)-2-aminocyclohexyl)oxy)-1-oxoisoindolin-2-yl)piperidine-2,6-dione] | 0% | –
O=C1CCC(N2Cc3cc(O[C@H]4CCCC[C@@H]4N(Cc4ccccc4)Cc4ccccc4)ccc3C2=O)C(=O)N1 (stereo partly drawn) [I-34, 3-(5-(((1S,2S)-2-(dibenzylamino)cyclohexyl)oxy)-1-oxoisoindolin-2-yl)piperidine-2,6-dione] | 0% | –
CC1(C#N)CCN([C@H]2CCC[C@@H]2Oc2ccc3c(c2)CN(C2CCC(=O)NC2=O)C3=O)CC1 (stereo partly drawn) [I-38, 1-((1S,2S)-2-((2-(2,6-dioxopiperidin-3-yl)-1-oxoisoindolin-5-yl)oxy)cyclopentyl)-4-methylpiperidine-4-carbonitrile] | 86% | –
CN(Cc1ccccc1)[C@H]1CCCC[C@@H]1Oc1ccc2c(c1)CN(C1CCC(=O)NC1=O)C2=O (stereo partly drawn) [I-39, 3-(5-(((1S,2S)-2-(benzyl(methyl)amino)cyclohexyl)oxy)-1-oxoisoindolin-2-yl)piperidine-2,6-dione] | 57% | –
CCN(CC)[C@H]1COC[C@@H]1Oc1ccc2c(c1)CN(C1CCC(=O)NC1=O)C2=O (stereo partly drawn) [I-47, 3-(5-(((3R,4S)-4-(diethylamino)tetrahydrofuran-3-yl)oxy)-1-oxoisoindolin-2-yl)piperidine-2,6-dione] | 11% | –
O=C1CCC(N2Cc3cc(O[C@H]4CCCC[C@@H]4N4CC(OCC(F)(F)F)C4)ccc3C2=O)C(=O)N1 (stereo partly drawn) [I-49, 3-(1-oxo-5-(((1S,2S)-2-(3-(2,2,2-trifluoroethoxy)azetidin-1-yl)cyclohexyl)oxy)isoindolin-2-yl)piperidine-2,6-dione] | 86% | –
O=C1CCC(N2Cc3cc(O[C@H]4CCCC[C@@H]4N4CC(OCC(F)F)C4)ccc3C2=O)C(=O)N1 (stereo partly drawn) [I-50, 3-(5-(((1S,2S)-2-(3-(2,2-difluoroethoxy)azetidin-1-yl)cyclohexyl)oxy)-1-oxoisoindolin-2-yl)piperidine-2,6-dione] | 85% | –
O=C1CCC(N2Cc3cc(O[C@H]4CCCC[C@@H]4N4CC(OCC5CC5)C4)ccc3C2=O)C(=O)N1 (stereo partly drawn) [I-51, 3-(5-(((1S,2S)-2-(3-(cyclopropylmethoxy)azetidin-1-yl)cyclohexyl)oxy)-1-oxoisoindolin-2-yl)piperidine-2,6-dione] | 90% | –
O=C1CCC(N2Cc3cc(O[C@H]4CCC[C@@H]4N4CC(OCc5ccccc5)C4)ccc3C2=O)C(=O)N1 (stereo partly drawn) [I-52, 3-(5-(((1S,2S)-2-(3-(benzyloxy)azetidin-1-yl)cyclopentyl)oxy)-1-oxoisoindolin-2-yl)piperidine-2,6-dione] | 89% | –
O=C1CCC(N2Cc3cc(O[C@H]4CCCC[C@@H]4N4CC(OCc5ccccc5)C4)ccc3C2=O)C(=O)N1 (stereo partly drawn) [I-54, 3-(5-(((1S,2S)-2-(3-(benzyloxy)azetidin-1-yl)cyclohexyl)oxy)-1-oxoisoindolin-2-yl)piperidine-2,6-dione] | 91% | –
CCOC1CN([C@H]2CCCCC[C@@H]2Oc2ccc3c(c2)CN(C2CCC(=O)NC2=O)C3=O)C1 (stereo partly drawn) [I-55, 3-(5-(((1S,2S)-2-(3-ethoxyazetidin-1-yl)cycloheptyl)oxy)-1-oxoisoindolin-2-yl)piperidine-2,6-dione] | 91% | –
O=C1CCC(N2Cc3cc(O[C@H]4CCCC[C@@H]4N4CC(OC5CC(F)(F)C5)C4)ccc3C2=O)C(=O)N1 (stereo partly drawn) [I-56, 3-(5-(((1S,2S)-2-(3-(3,3-difluorocyclobutoxy)azetidin-1-yl)cyclohexyl)oxy)-1-oxoisoindolin-2-yl)piperidine-2,6-dione] | 91% | –
CCN[C@H]1CCCCC[C@@H]1Oc1ccc2c(c1)CN(C1CCC(=O)NC1=O)C2=O (stereo partly drawn) [I-57, 3-(5-(((1S,2S)-2-(ethylamino)cycloheptyl)oxy)-1-oxoisoindolin-2-yl)piperidine-2,6-dione] | – | 80%
O=C1CCC(N2Cc3cc(O[C@H]4CCCCC[C@@H]4NCc4ccccc4)ccc3C2=O)C(=O)N1 (stereo partly drawn) [I-58, 3-(5-(((1S,2S)-2-(benzylamino)cycloheptyl)oxy)-1-oxoisoindolin-2-yl)piperidine-2,6-dione] | – | 75%
CCN(CC)[C@H]1CCCCC[C@@H]1Oc1ccc2c(c1)CN(C1CCC(=O)NC1=O)C2=O (stereo partly drawn) [I-59, 3-(5-(((1S,2S)-2-(diethylamino)cycloheptyl)oxy)-1-oxoisoindolin-2-yl)piperidine-2,6-dione] | – | 39%

Second part, led by results:

IKZF2 % protein reduction at 10 µM [1] | Structure (SMILES) | IKZF2 % protein reduction at 10 µM
50% | O=C1CCC(N2Cc3cc(O[C@H]4CCC[C@@H]4N4CC5CCC(C4)O5)ccc3C2=O)C(=O)N1 (stereo partly drawn) [I-18, 3-(5-(((1S,2S)-2-(8-oxa-3-azabicyclo[3.2.1]octan-3-yl)cyclopentyl)oxy)-1-oxoisoindolin-2-yl)piperidine-2,6-dione] | –
80% | CCN(CCF)[C@H]1CCC[C@@H]1Oc1ccc2c(c1)CN(C1CCC(=O)NC1=O)C2=O (stereo partly drawn) [I-24, 3-(5-(((1S,2S)-2-(ethyl(2-fluoroethyl)amino)cyclopentyl)oxy)-1-oxoisoindolin-2-yl)piperidine-2,6-dione] | –
80% | CCN[C@H]1CCC[C@@H]1Oc1ccc2c(c1)CN(C1CCC(=O)NC1=O)C2=O (stereo partly drawn) [I-29, 3-(5-(((1S,2S)-2-(ethylamino)cyclopentyl)oxy)-1-oxoisoindolin-2-yl)piperidine-2,6-dione] | –
90% | O=C1CCC(N2Cc3cc(O[C@H]4CCC[C@@H]4N(CC4CC4)CC4CC4)ccc3C2=O)C(=O)N1 (stereo partly drawn) [I-31, 3-(5-(((1S,2S)-2-(bis(cyclopropylmethyl)amino)cyclopentyl)oxy)-1-oxoisoindolin-2-yl)piperidine-2,6-dione] | –
85% | O=C1CCC(N2Cc3cc(O[C@H]4CCC[C@@H]4N4CCCCC4)ccc3C2=O)C(=O)N1 (stereo partly drawn) [I-32, 3-(1-oxo-5-(((1S,2S)-2-(piperidin-1-yl)cyclopentyl)oxy)isoindolin-2-yl)piperidine-2,6-dione] | –
55% | O=C1CCC(N2Cc3cc(O[C@H]4CCC[C@@H]4N4CCOCC4)ccc3C2=O)C(=O)N1 (stereo partly drawn) [I-33, 3-(5-(((1S,2S)-2-morpholinocyclopentyl)oxy)-1-oxoisoindolin-2-yl)piperidine-2,6-dione] | –
10% | CCN(CC)[C@H]1CCCC[C@H]1Oc1ccc2c(c1)CN(C1CCC(=O)NC1=O)C2=O (stereo partly drawn) [I-35, 3-(5-(((1R,2S)-2-(diethylamino)cyclohexyl)oxy)-1-oxoisoindolin-2-yl)piperidine-2,6-dione] | –
80% | CN[C@H]1CCCC[C@@H]1Oc1ccc2c(c1)CN(C1CCC(=O)NC1=O)C2=O (stereo partly drawn) [I-36, 3-(5-(((1S,2S)-2-(methylamino)cyclohexyl)oxy)-1-oxoisoindolin-2-yl)piperidine-2,6-dione] | –
0% | CCN(CC)[C@@H]1CCC[C@H]1Oc1ccc2c(c1)CN(C1CCC(=O)NC1=O)C2=O (stereo partly drawn) [I-43, 3-(5-(((1R,2R)-2-(diethylamino)cyclopentyl)oxy)-1-oxoisoindolin-2-yl)piperidine-2,6-dione] | –
0% | N[C@H]1COC[C@@H]1Oc1ccc2c(c1)CN(C1CCC(=O)NC1=O)C2=O (stereo partly drawn) [I-46, 3-(5-(((3R,4S)-4-aminotetrahydrofuran-3-yl)oxy)-1-oxoisoindolin-2-yl)piperidine-2,6-dione] | –
89% | CCOC1CN([C@H]2CCCC[C@@H]2Oc2ccc3c(c2)CN(C2CCC(=O)NC2=O)C3=O)C1 (stereo partly drawn) [I-48, 3-(5-(((1S,2S)-2-(3-ethoxyazetidin-1-yl)cyclohexyl)oxy)-1-oxoisoindolin-2-yl)piperidine-2,6-dione] | –
88% | CC(C)OC1CN([C@H]2CCCC[C@@H]2Oc2ccc3c(c2)CN(C2CCC(=O)NC2=O)C3=O)C1 (stereo partly drawn) [I-53, 3-(5-(((1S,2S)-2-(3-isopropoxyazetidin-1-yl)cyclohexyl)oxy)-1-oxoisoindolin-2-yl)piperidine-2,6-dione] | –
